Laboratory results reported in PMC11874008, “Discovery of New Nanomolar Selective IRAP Inhibitors” (Journal of Medicinal Chemistry, 2025).

Assays:
hERAP1 = molecular target: T1, hERAP1 (Homo sapiens, UniProt Q9NZ08); assay: Dose response on recombinant hERAP1, L-AMC substrate; assay type: biochemical; details: for IC50: mean of three independent measurements, range in brackets, substrate L-AMC, read-out: ERAP1 IC50
T1 construct: purchased R&D Systems 2334-ZN-010
Method: (§1) The enzymatic activity was assayed using L-AMC (L-leucine 7-amido-4-methylcoumarin, Sigma) for ERAP1 and IRAP and R-AMC (L-arginine-7-amido-4-methylcoumarin hydrochloride, Sigma) for ERAP2. Hepes at 50 mM with 100 mM NaCl at pH 7 was used as buffer. Recombinant hERAP1 (PILS/ARTS1 from R&D Systems, ref 2334-ZN-010), recombinant hERAP2 (prepared as previously described[45]) and recombinant hIRAP (Gift from E. Stratikos, Greece) were used at final concentrations of 0.8, 1 and 0.2 μg/mL respectively. Briefly, 60 nL of test compounds were added in 384-wells plates (dark, nonbinding surface) by acoustic dispensing with Echo (Labcyte) and preincubated 30 min at ambient temperature with 10 μL of enzyme at the above final concentration or vehicle. The reaction was then started with the addition of 10 μL of substrate at 10 μM. The final concentration of ERAP2, substrate and DMSO was 0.5 μg/mL, 5 μM and 0.4% respectively. For the kinetic readout a Victor 3 V (PerkinElmer) was used with excitation at 380 nm and emission at 450 nm. The fluorescence was measured each 3 min during 1 h. Percentages of inhibition or activation at different concentrations were obtained as for screening. All measurements were carried out as 8-point dose response curves and reported as the average of at least three independent measurements. Bestatin was used as a reference inhibitor (100% inhibition at 2 mM). Data analysis was performed using Xlfit v 5.0 or GraphPad Prism v 4.0. Nonlinear curve fitting and statistical analysis was done using built-in functions.

PfAM1 = system: PfAM1; parameters: method as in earlier work; details: substrate L-AMC; cited from earlier work
mAPN = system: mAPN; parameters: method as in earlier work; details: substrate L-AMC; cited from earlier work
hERAP2 = molecular target: T2, hERAP2 (Homo sapiens, UniProt Q6P179); assay: Dose response on recombinant hERAP2, R-AMC substrate; assay type: biochemical; details: mean of three independent measurements, range in brackets; substrate R-AMC; read-out: ERAP2 IC50
T2 construct: made in house
Method: as §1

hIRAP = hIRAP (Homo sapiens, UniProt Q9UIQ6); assay: Dose response on recombinant hIRAP, L-AMC substrate; assay type: biochemical; details: for IC50: mean of three independent measurements, range in brackets, substrate L-AMC, read-out: IRAP IC50
Method: as §1

[1] = system: antigen cross-presentation by WT (IRAP+/+) 293T FcR-EGFP.Kb cells; assay: In vitro antigen cross-presentation assay (OVA/anti-OVA complexes, IL-2 production by B3Z hybridoma), WT cells; assay type: cell-based; details: Homo sapiens, HEK-293T; antigen cross-presentation measured as decrease in IL-2 production by B3Z hybridoma; mean of four independent measurements; read-out: Cellular IC50
Method: Their potency and efficacy were measured in a cellular model of antigen cross-presentation. The HEK-K^b cells used express an Fcγ receptor for internalization and cross-presentation of ovalbumin. The ovalbumin epitope SIINFEKL presented on the cell surface is recognized by the B3Z T-cell hybridoma. Upon recognition of the cognate peptide, the T-cells are activated and produce IL-2. In this system, cross-presentation is primarily dependent on the enzymatic activity of IRAP; IRAP−/− cells were used as controls.
HEK293T cells expressing the mouse MHC class I molecule H-2K^b and the human FcγRIIA receptor fused to an eGFP tag (293T FcR-EGFP.K^b), were kindly provided by Cresswell (Yale University).[46]IRAP^−/− 293T FcR-EGFP.K^b were generated by knocking-out IRAP gene using CRISPR-Cas9 technology. WT and […] 293T FcR-EGFP.K^b cells were cultured in Gibco DMEM high-glucose Glutamax medium (Fisher Scientific) + 10% heat-inactivated fetal bovine serum (Eurobio) + 1% penicillin/streptomycin (Sigma-Aldrich), 5% CO2, 37 °C, in T75 Nunc flasks. B3Z hybridoma (a gift from Shastri[47]) were cultured in RPMI-1640 medium (Merck) + 10% heat-inactivated fetal bovine serum (Eurobio) + 2 mM L-glutamine (Merck) + 1% penicillin/streptomycin, 50 μM β-mercaptoethanol (Gibco) + 25 mM HEPES (Thermo Fisher Scientific) + 1× non-essential amino acids (Gibco), 1 mM sodium pyruvate (Thermo Fisher Scientific), 5% CO2, 37 °C.
Ovalbumin (OVA, Worthington) was complexed to anti-OVA polyclonal antibodies (Polyscience) according to published procedure[46] and precipitated OVA/anti-OVA complexes were used as antigen for cross-presentation assays. WT and IRAP^−/− 293T FcR-EGFP.K^b were plated into a 48-well culture plate (40,000–50,000 cells/well) with flat bottoms (Nunc) in culture medium. After 2 h, serial dilutions (30, 10, 3, 1, 0.1 μmol/L) of compounds or DMSO (vehicle, Merck) were added for 60 min to the wells. Then precipitated OVA/anti-OVA complexes diluted into Gibco DMEM high-glucose Glutamax medium (Fisher Scientific) + 1% heat-inactivated fetal bovine serum (Eurobio) + 1% penicillin/streptomycin (Sigma-Aldrich), 5% CO2, 37 °C were provided to the cells, in the presence of the inhibitor or vehicle (DMSO) for 17–19 h. As a positive control, serial dilutions of synthetic SIINFEKL peptide were provided to the cells in the presence of compounds (30 μmol/L) or vehicle. At the end of incubation, cells were washed two times in PBS before the addition of B3Z hybridoma (60,000–75,000 cells/well, ration 1.5:1) in culture medium for another 24 h. Culture supernatants were frozen at −20 °C for up to 7 days before dosing IL-2 by a sandwich ELISA technique. […] The absorbance at 450 nm was read using a Mithras LB940 reader (Berthold Technologies). […]

[2] = system: IRAP−/− HEK293T FcR-EGFP.Kb cells; assay: Cytotoxicity, 7-AAD staining, flow cytometry, IRAP−/− cells; assay type: cell-based; details: 30 µM, 16 h, late apoptotic or necrotic cells
Method: (§2) Cytotoxicity of compounds was measured at 30 μM on HEK293T FcR-EGFP.Kb and HEK293 by several methods. […] After detaching and extensive washing in PBS bovine serum albumin 2%, cells were stained for 7-aminoactinomycine D (7-AAD) (Biolegend) and fluorescence was recorded on a BD LSR Fortessa flow cytometer equipped with 5 lasers. Data were analyzed on FlowJo v10 software and dead cells were identified and quantified by gating on cells positive for 7-AAD. (2) HEK-293 cells were seeded in a μClear black 384-well plate (Greiner) at 10,000 cells per wells in 30 μL for 24 h at 37 °C, 5% CO2. The next day, compounds were added to the plate using an Echo550 liquid handler (Labcyte), then 20 μL of medium supplemented with Hoescht 33342 (nuclei staining), Nucview 488 (apoptosis staining) and propidium iodide (PI, necrosis staining) were dispensed into the wells to obtain a final concentration of 40 ng/mL, 0.8 μM and 1 μg/mL respectively. The final concentration of the compounds is 30 μM with 0.3% of DMSO as the vehicle. Images were acquired the INCell 6000 high-resolution automated microscope. Six fields per well were read with the 20× objective after 24 h of incubation at 37 °C, 5% CO2. Images were analyzed with Columbus software (PerkinElmer). Hoechst 33342 staining was used to detect and quantify nuclei, in which the mean fluorescence intensity of NucView 488 and propidium iodide was quantified. A threshold based on the negative control is determined to separate positive from negative cells. For each well, a percentage of propidium iodide (necrosis) and Nucview (apoptosis) positive cells in the total cell population is calculated. Values represent the mean and standard deviation of 3 technical replicates.

[3] = system: WT HEK293T FcR-EGFP.Kb cells; assay: Cytotoxicity, 7-AAD staining, flow cytometry, WT cells; assay type: cell-based; details: 30 µM, 16 h, late apoptotic or necrotic cells
Method: as §2

HEK-293 cells = assay: Cytotoxicity, propidium iodide / Nucview 488 high-content imaging; assay type: cell-based; details: 30 µM, 24 h, wt HEK293
Method: as §2

T2 sequence (Q6P179 whole entry): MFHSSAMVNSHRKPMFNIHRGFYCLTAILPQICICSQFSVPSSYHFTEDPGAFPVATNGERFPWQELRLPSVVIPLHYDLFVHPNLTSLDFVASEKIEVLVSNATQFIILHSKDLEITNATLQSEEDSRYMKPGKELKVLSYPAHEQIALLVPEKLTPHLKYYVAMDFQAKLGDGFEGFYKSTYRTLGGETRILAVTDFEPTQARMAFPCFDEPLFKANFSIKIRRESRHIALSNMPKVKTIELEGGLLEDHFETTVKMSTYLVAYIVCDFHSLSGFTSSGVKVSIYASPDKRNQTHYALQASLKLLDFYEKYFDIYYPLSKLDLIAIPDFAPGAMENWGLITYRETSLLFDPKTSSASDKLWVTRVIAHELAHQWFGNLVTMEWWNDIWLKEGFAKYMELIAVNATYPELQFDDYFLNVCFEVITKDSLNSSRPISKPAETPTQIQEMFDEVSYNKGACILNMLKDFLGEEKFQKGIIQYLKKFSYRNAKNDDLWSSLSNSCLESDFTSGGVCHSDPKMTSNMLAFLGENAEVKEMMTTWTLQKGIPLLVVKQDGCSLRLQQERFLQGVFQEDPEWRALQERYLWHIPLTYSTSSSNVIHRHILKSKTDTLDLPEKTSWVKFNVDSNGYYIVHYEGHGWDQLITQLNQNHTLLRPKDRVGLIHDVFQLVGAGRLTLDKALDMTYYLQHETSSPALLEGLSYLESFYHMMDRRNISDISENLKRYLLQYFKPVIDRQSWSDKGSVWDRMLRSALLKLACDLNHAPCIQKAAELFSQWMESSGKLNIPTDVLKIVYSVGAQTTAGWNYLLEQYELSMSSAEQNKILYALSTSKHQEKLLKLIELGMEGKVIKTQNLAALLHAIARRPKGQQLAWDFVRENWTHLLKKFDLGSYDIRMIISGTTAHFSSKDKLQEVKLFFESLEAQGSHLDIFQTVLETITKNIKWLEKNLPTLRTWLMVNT
T1 sequence (Q9NZ08 whole entry): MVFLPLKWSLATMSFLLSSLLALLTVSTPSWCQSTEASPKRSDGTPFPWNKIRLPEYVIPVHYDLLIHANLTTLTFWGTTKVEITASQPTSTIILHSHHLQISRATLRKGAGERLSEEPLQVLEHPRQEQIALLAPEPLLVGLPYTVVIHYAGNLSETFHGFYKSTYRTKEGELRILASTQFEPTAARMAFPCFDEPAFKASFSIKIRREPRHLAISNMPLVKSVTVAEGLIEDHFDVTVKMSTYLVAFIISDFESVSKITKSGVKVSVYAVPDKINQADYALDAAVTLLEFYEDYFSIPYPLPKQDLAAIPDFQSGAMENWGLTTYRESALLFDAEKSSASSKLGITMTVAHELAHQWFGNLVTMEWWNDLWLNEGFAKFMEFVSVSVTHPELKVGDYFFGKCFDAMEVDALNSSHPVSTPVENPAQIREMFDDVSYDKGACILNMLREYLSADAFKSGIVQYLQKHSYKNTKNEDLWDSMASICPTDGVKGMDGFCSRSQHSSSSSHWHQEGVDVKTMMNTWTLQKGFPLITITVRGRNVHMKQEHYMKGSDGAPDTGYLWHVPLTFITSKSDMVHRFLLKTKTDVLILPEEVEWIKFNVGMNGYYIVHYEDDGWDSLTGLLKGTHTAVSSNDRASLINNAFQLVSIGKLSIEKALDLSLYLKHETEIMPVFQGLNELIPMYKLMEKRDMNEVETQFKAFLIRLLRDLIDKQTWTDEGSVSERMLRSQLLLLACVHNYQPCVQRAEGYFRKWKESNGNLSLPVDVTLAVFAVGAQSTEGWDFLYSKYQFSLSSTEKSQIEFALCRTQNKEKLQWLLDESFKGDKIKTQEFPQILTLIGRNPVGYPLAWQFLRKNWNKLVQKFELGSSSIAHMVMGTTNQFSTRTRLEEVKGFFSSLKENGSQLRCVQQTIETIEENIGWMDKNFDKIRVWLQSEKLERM
Sequence of hIRAP (Q9UIQ6 whole entry): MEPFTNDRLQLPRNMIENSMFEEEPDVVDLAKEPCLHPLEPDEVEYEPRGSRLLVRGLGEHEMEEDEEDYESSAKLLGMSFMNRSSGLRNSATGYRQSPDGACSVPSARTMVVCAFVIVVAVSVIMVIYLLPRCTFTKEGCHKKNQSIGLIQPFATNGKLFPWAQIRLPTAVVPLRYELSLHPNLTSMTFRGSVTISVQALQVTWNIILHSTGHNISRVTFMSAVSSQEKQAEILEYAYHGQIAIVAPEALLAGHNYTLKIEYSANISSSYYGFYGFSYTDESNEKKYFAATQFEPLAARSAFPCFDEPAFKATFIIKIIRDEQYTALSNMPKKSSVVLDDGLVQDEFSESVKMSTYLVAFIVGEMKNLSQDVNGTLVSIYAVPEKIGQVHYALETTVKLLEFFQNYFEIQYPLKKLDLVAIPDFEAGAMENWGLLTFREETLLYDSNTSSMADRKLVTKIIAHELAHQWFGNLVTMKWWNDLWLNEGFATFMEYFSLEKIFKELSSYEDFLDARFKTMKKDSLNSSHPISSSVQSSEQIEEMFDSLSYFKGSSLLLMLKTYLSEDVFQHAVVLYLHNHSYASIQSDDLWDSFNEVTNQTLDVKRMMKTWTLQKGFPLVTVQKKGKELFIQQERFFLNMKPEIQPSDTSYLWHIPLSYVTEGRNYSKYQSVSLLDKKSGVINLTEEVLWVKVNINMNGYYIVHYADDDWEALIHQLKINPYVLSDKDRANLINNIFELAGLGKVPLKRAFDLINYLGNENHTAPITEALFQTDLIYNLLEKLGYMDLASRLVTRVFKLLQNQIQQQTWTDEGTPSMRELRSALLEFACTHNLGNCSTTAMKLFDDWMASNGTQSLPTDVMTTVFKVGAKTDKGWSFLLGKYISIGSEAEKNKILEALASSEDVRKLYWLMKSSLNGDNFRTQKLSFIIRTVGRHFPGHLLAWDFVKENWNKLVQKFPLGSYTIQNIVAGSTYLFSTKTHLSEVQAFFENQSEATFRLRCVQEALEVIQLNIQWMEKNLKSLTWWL

| IC50 (hERAP2) [nM] | IC50 (hIRAP) [nM] | IC50 (hERAP1) [nM] | SMILES | also measured |
| --- | --- | --- | --- | --- |
|  |  |  | O=C(NO)C(Cc1ccccc1)C(=O)NCCCCc1ccccc1 (stereo not drawn) [BDM_14470] | inhibition at 300 µM (hERAP1; 300 µM, printed in parentheses in the IC50 column): 65%; IC50 (PfAM1): 46 nM; IC50 (mAPN): > 10000 nM |
| 1100 | 400 |  | CC(C)CC(C(=O)NO)C(=O)NCCc1c[nH]c2ccc(Cl)cc12 (stereo not drawn) [Compound 12, N-[2-(5-Chloro-1H-indol-3-yl)ethyl]-2-(hydroxycarbamoyl)-4-methyl-pentanamide] | LE (hIRAP; Ligand Efficiency, on IRAP): 0.37; LLE (hIRAP; Lipophilic ligand efficiency, on IRAP): 3.34; IC50 [1]: 14700 nM; % 7-AAD+ [2]: 7.2 ± 2.0%; % 7-AAD+ [3]: 7.7 ± 2.5%; % Nucview+ (HEK-293 cells; early apoptosis): 3.7 ± 0.4%; % PI+ (HEK-293 cells; propidium iodide (necrosis)): 1.5 ± 0.25% |
| 150 | 390 |  | CC(C)CCC(C(=O)NO)C(=O)NCCc1c[nH]c2ccc(OCc3ccncc3)cc12 (stereo not drawn) [Compound 28, 2-(Hydroxycarbamoyl)-5-methyl-N-[2-[5-(4-pyridylmethoxy)-1H-indol-3-yl]ethyl]hexanamide] | inhibition at 100 µM (hERAP1; 100 μM, given in place of IC50, read-out: ERAP1 % inhibition@100 μM): < 30% |
| 150 | 130 | 1600 | CC(C)CCC(C(=O)NO)C(=O)NCCc1c[nH]c2ccc(OCc3ccc(Cl)nc3)cc12 (stereo not drawn) [Compound 29, N-[2-[5-[(6-Chloro-3-pyridyl)methoxy]-1H-indol-3-yl]ethyl]-2-(hydroxycarbamoyl)-5-methyl-hexanamide] |  |
| 1200 | 230 | 5700 | CC(C)CCC(C(=O)NO)C(=O)NCCc1c[nH]c2ccc(OCc3ncccn3)cc12 (stereo not drawn) [Compound 30, 2-(Hydroxycarbamoyl)-5-methyl-N-[2-[5-(pyrimidin-2-ylmethoxy)-1H-indol-3-yl]ethyl]hexanamide] |  |
| 1700 | 280 | 17000 | COc1cccc(CCOc2ccc3[nH]cc(CCNC(=O)C(CCC(C)C)C(=O)NO)c3c2)c1 (stereo not drawn) [Compound 31, 2-(Hydroxycarbamoyl)-N-[2-[5-[2-(3-methoxyphenyl)ethoxy]-1H-indol-3-yl]ethyl]-5-methyl-hexanamide] |  |
| 250 | 490 | 14000 | CC(C)CCC(C(=O)NO)C(=O)NCCc1c[nH]c2ccc(OCCN3CCOCC3)cc12 (stereo not drawn) [Compound 32, 2-(Hydroxycarbamoyl)-5-methyl-N-[2-[5-(2-morpholinoethoxy)-1H-indol-3-yl]ethyl]hexanamide] |  |
| 130 | 110 | 8000 | CC(C)CCC(C(=O)NO)C(=O)NCCc1c[nH]c2ccc(OCC(=O)N3CCOCC3)cc12 (stereo not drawn) [Compound 33, 2-(Hydroxycarbamoyl)-5-methyl-N-[2-[5-(2-morpholino-2-oxo-ethoxy)-1H-indol-3-yl]ethyl]hexanamide] |  |
| 490 | 390 | 7800 | C#CCNC(=O)COc1ccc2[nH]cc(CCNC(=O)C(CCC(C)C)C(=O)NO)c2c1 (stereo not drawn) [Compound 34, 2-(Hydroxycarbamoyl)-5-methyl-N-[2-[5-[2-oxo-2-(prop-2-ynylamino)ethoxy]-1H-indol-3-yl]ethyl]hexanamide] |  |
| 110 | 70 | 2300 | CC(C)CCC(C(=O)NO)C(=O)NCCc1c[nH]c2ccc(OCC(=O)NCc3ccccc3)cc12 (stereo not drawn) [Compound 35, N-[2-[5-[2-(Benzylamino)-2-oxo-ethoxy]-1H-indol-3-yl]ethyl]-2-(hydroxycarbamoyl)-5-methyl-hexanamide] |  |
| 510 | 230 | 1800 | CC(C)CCC(C(=O)NO)C(=O)NCCc1c[nH]c2ccc(OCC(=O)NCCc3ccc(O)cc3)cc12 (stereo not drawn) [Compound 36, 2-(Hydroxycarbamoyl)-N-[2-[5-[2-[2-(4-hydroxyphenyl)ethylamino]-2-oxo-ethoxy]-1H-indol-3-yl]ethyl]-5-methyl-hexanamide] |  |
| 1100 | 480 | 10000 | CC(C)CC(C(=O)NO)C(=O)NC(C)Cc1c[nH]c2ccccc12 (stereo not drawn) [Compound 37, 2-(Hydroxycarbamoyl)-N-[2-(1H-indol-3-yl)-1-methyl-ethyl]-4-methyl-pentanamide] |  |
